Laboratory results reported in patent publication US9556201B2, “Bicyclic pyridines and analogs as sirtuin modulators” (GLAXOSMITHKLINE LLC, priority 2009, dated 2017).

Target: T1, SIRT1 (Homo sapiens, UniProt Q96EB6)
T1 sequence (Q96EB6 1-747): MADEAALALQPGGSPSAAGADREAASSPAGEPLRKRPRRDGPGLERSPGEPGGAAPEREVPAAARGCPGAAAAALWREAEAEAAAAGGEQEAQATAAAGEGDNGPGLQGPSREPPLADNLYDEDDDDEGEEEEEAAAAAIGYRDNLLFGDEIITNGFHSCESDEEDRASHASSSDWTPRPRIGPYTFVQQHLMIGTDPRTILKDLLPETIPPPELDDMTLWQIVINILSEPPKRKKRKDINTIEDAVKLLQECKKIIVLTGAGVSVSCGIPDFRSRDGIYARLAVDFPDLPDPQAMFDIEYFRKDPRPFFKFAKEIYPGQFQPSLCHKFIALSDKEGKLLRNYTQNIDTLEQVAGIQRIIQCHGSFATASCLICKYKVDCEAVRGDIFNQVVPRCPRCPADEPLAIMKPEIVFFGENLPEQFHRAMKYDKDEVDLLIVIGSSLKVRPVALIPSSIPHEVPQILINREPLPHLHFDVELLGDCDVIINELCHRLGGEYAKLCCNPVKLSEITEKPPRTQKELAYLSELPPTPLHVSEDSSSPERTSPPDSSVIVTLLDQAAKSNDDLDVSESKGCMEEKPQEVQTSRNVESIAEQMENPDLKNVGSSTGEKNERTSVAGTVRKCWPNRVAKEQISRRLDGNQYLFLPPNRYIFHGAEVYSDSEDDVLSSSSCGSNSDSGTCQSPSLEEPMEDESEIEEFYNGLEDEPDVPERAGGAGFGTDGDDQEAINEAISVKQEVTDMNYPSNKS
Assay: Mass spectrometry based assay to identify modulators of SIRT1 activity (deacetylation of p53-based acetylated peptide substrate)
Type: biochemical
Settings: for Emax: 25 min, read-out: % FOLD ACT. (percent maximum fold activation); for Emax / EC1.5: SIRT1 activation
Text: A mass spectrometry based assay was used to identify modulators of SIRT1 activity. The mass spectrometry based assay utilizes a peptide having 20 amino acid residues as follows: Ac-EE-K(biotin)-GQSTSSHSK(Ac)NleSTEG-K(5TMR)-EE-NH2 (SEQ ID NO: 1) wherein K(Ac) is an acetylated lysine residue and Nle is a norleucine. The peptide is labeled with the fluorophore 5TMR (excitation 540 nm/emission 580 nm) at the C-terminus. The sequence of the peptide substrate is based on p53 with several modifications. In addition, the methionine residue naturally present in the sequence was replaced with the norleucine because the methionine may be susceptible to oxidation during synthesis and purification.
The mass spectrometry assay is conducted as follows: […] peptide substrate and 120 μM βNAD^+ is incubated with 10 nM SIRT1 for 25 minutes at 25° C. in a reaction buffer (50 mM Tris-acetate pH 8, 137 mM NaCl, 2.7 mM KCl, 1 mM MgCl2, 5 mM DTT, 0.05% BSA). Test compounds may be added to the reaction as described above. The SirT1 gene is cloned into a T7-promoter containing vector and transformed into BL21(DE3). After the 25 minute incubation with SIRT1, 10 μL of 10% formic acid is added to stop the reaction. Reactions are sealed and frozen for later mass spec analysis. Determination of the mass of the substrate peptide allows for precise determination of the degree of acetylation (i.e. starting material) as compared to deacetylated peptide (product).
A control for inhibition of sirtuin activity is conducted by adding 1 μL of 500 mM nicotinamide as a negative control at the start of the reaction (e.g., permits determination of maximum sirtuin inhibition). A control for activation of sirtuin activity is conducted using 10 nM of sirtuin protein, with 1 μL of DMSO in place of compound, to determine the amount of deacetylation of the substrate at a given timepoint within the linear range of the assay. This timepoint is the same as that used for test compounds and, within the linear range, the endpoint represents a change in velocity.
For the above assay, SIRT1 protein was expressed and purified as follows. The SirT1 gene was cloned into a T7-promoter containing vector and transformed into BL21(DE3). The protein was expressed by induction with 1 mM IPTG as an N-terminal His-tag fusion protein at 18° C. overnight and harvested at 30,000×g. Cells were lysed with lysozyme in lysis buffer (50 mM Tris-HCl, 2 mM Tris[2-carboxyethyl]phosphine (TCEP), 10 μM ZnCl2, 200 mM NaCl) and further treated with sonication for 10 min for complete lysis. The protein was purified over a Ni-NTA column (Amersham) and fractions containing pure protein were pooled, concentrated and run over a sizing column (Sephadex S200 26/60 global). The peak containing soluble protein was collected and run on an Ion-exchange column (MonoQ). Gradient elution (200 mM-500 mM NaCl) yielded pure protein. This protein was concentrated and dialyzed against dialysis buffer (20 mM Tris-HCl, 2 mM TCEP) overnight. The protein was aliquoted and frozen at −80° C. until further use.

| EC1.5 (concentration giving 1.5-fold activation) [µM] | Emax [%] | EC1.5 | % FOLD ACT. (percent maximum fold activation) | SMILES |
| --- | --- | --- | --- | --- |
| > 25 | ≤ 200 |  |  | O=C(Nc1ccnc(OC[C@H](O)CO)n1)N1CCOc2ccc(-c3cccc(C(F)(F)F)c3)nc21 [Compound 731] |
| 1 to 25 | ≤ 200 |  |  | O=C(Nc1ccncc1)N1CCOc2ncc(-c3cccc(C(F)(F)F)c3)nc21 [Compound 723] |
| 1 to 25 | ≤ 200 |  |  | O=C(Nc1ccncc1)N1CCOc2cnc(-c3cccc(C(F)(F)F)c3)nc21 [Compound 715] |
| < 1 | > 200 |  |  | Cc1nc(NC(=O)N2CCCOc3ccc(-c4cccc(Cl)c4)nc32)sc1C [Compound 703] |
| 1 to 25 | > 200 |  |  | CCN1CCCN(C(=O)Nc2cccnc2)c2nc(-c3cccc(Cl)c3)ccc21 [Compound 789, 7-(3-chlorophenyl)-1-ethyl-N-(pyridin-3-yl)-3,4-dihydro-1H-pyrido[2,3-b][1,4]diazepine-5(2H)-carboxamide] |
| < 1 | > 200 |  |  | CC1(C)CCN(C(=O)Nc2ccccn2)c2nc(-c3cccc(C(F)(F)F)c3)ccc21 [Compound 827] |
| 1 to 25 | ≤ 200 |  |  | Cc1cnccc1NC(=O)N1CCC(C)(C)c2ccc(-c3cccc(C(F)(F)F)c3)nc21 [Compound 834, 4,4-dimethyl-N-(3-methylpyridin-4-yl)-7-(3-(trifluoromethyl)phenyl)-3,4-dihydro-1,8-naphthyridine-1(2H)-carboxamide] |
| > 25 | ≤ 200 |  |  | CCN1C(=O)CCN(C(=O)Nc2ccc(F)cn2)c2nc(-c3cccc(Cl)c3)ccc21 [Compound 791] |
| 1 to 25 | > 200 |  |  | O=C(Nc1cccnn1)N1CCCOc2ccc(-c3cccc(Cl)c3)nc21 [Compound 867] |
|  | > 200 | B (EC1.5 1-25 μM) |  | CC1(C)CN(C(=O)Nc2ccncc2)c2nc(-c3cccc(F)c3)ccc2O1 [Compound 561] |
| > 25 | ≤ 200 |  |  | O=C(Nc1ccccn1)N1CCCC(F)(F)c2ccc(-c3cccc(Cl)c3)nc21 [Compound 778] |
|  | > 200 | A (EC1.5<1.0 μM) |  | O=C(Nc1cccc(OC[C@H](O)CO)n1)N1CCCc2ccc(-c3cccc(F)c3)nc21 [Compound 679] |
|  | > 200 | B (EC1.5 1-25 μM) |  | CC1(C)CN(C(=O)Nc2cncc(F)c2)c2nc(-c3cccc(F)c3)ccc2O1 [Compound 621] |
| > 25 | ≤ 200 |  |  | O=C(Nc1ccncc1)N1CCCC(F)(F)c2ccc(-c3cccc(Cl)c3)nc21 [Compound 770] |
| < 1 | > 200 |  |  | O=C(Nc1cccc(OC[C@H](O)CO)n1)N1CCCc2ccc(-c3ccc4c(c3)CCO4)nc21 [Compound 702] |
| 1 to 25 |  |  | B (Fold Activation≦200%) | O=C(Nc1ccncc1)N1CCOc2c(N3CCNCC3)nc(-c3cccc(F)c3)nc21 [Compound 751] |
| > 25 | ≤ 200 |  |  | Cc1cccnc1NC(=O)N1CCCOc2ccc(-c3cccc(Cl)c3)nc21 [Compound 871] |
|  | > 200 | A (EC1.5<1.0 μM) |  | O=C(Nc1ccc(CN2CCOCC2)nc1)N1CCOc2ccc(-c3cccc(C(F)(F)F)c3)nc21 [Compound 507, N-(6-(morpholinomethyl)pyridin-3-yl)-6-(3-(trifluoromethyl)phenyl)-2H-pyrido[3,2-b][1,4]oxazine-4(3H)-carboxamide] |
| 1 to 25 | > 200 |  |  | Cc1cc(OCC(O)CO)nc(NC(=O)N2CCCOc3ccc(-c4cccc(Cl)c4)nc32)n1 (stereo not drawn) [Compound 859] |

| EC1.5 (concentration giving 1.5-fold activation) [µM] | Emax [%] | EC1.5 | % FOLD ACT. (percent maximum fold activation) | SMILES |
| --- | --- | --- | --- | --- |
| 1 to 25 | > 200 |  |  | Cc1cc(C)nc(NC(=O)N2CCOc3ncc(-c4cccc(C(F)(F)F)c4)nc32)c1 [Compound 741] |
|  | ≤ 200 | B (EC1.5 1-25 μM) |  | Cc1cnccc1NC(=O)N1CCOc2ccc(-c3cccc(C(F)(F)F)c3)nc21 [Compound 564] |
| 1 to 25 | > 200 |  |  | O=C(Nc1cnccn1)N1CCCOc2ccc(-c3cccc(Cl)c3)nc21 [Compound 866] |
| 1 to 25 | > 200 |  |  | O=C(Nc1ccncn1)N1CCCCc2ccc(-c3cccc(Cl)c3)nc21 [Compound 755] |
|  | > 200 | B (EC1.5 1-25 μM) |  | O=C(Nc1ccnc(N2CCC2)c1)N1CCCOc2ccc(-c3cccc(F)c3)nc21 [Compound 584] |
| 1 to 25 | > 200 |  |  | CC1CCN(C(=O)Nc2ncccc2F)c2nc(-c3cccc(C(F)(F)F)c3)ccc21 (stereo not drawn) [Compound 803] |
|  | > 200 |  |  | CN1CCN(C(=O)Nc2nccs2)c2nc(-c3cccc(C(F)(F)F)c3)ccc21 [Compound 529, 1-methyl-N-(thiazol-2-yl)-6-(3-(trifluoromethyl)phenyl)-2,3-dihydropyrido[2,3-b]pyrazine-4(1H)-carboxamide] |
|  | > 200 | B (EC1.5 1-25 μM) |  | O=C(Nc1ccncc1)N1CCOc2ccc(-c3ccccc3F)nc21 [Compound 544] |
| 1 to 25 | ≤ 200 |  |  | Cc1cc(NC(=O)N2CCOc3c(N4CCCC4)nc(-c4cccc(F)c4)nc32)cc(C)n1 [Compound 718] |
|  | > 200 | A (EC1.5<1.0 μM) |  | O=C(Nc1ccnc(N2CCC2)c1)N1CCCOc2ccc(-c3cccc(C(F)(F)F)c3)nc21 [Compound 579] |
|  | > 200 | B (EC1.5 1-25 μM) |  | O=C(Nc1cccnc1)N1CCCc2ccc(-c3cccc(F)c3)nc21 [Compound 650] |
|  | > 200 | B (EC1.5 1-25 μM) |  | Cc1cc(-c2ccc3c(n2)N(C(=O)Nc2ccncn2)CCCO3)ccn1 [Compound 674] |
|  | > 200 | A (EC1.5<1.0 μM) |  | O=C(Nc1ccncc1)N1CCCc2ccc(-c3cccc(F)c3)nc21 [Compound 648] |
| 1 to 25 | > 200 |  |  | Cc1cc(NC(=O)N2CCCC(F)(F)c3ccc(-c4cccc(Cl)c4)nc32)cc(C)n1 [Compound 772] |
| 1 to 25 | > 200 |  |  | Cc1cc(NC(=O)N2CCOc3c(N4CCNCC4)nc(-c4cccc(F)c4)nc32)cc(C)n1 [Compound 752] |
|  | ≤ 200 | B (EC1.5 1-25 μM) |  | Cc1csc(NC(=O)N2CC(=O)N(C)c3ccc(-c4cccc(C(F)(F)F)c4)nc32)n1 [Compound 521] |
| > 25 | ≤ 200 |  |  | O=C(Nc1ccncc1F)N1CCCC(F)(F)c2ccc(-c3cccc(Cl)c3)nc21 [Compound 782] |
| 1 to 25 | > 200 |  |  | O=C(Nc1ccnc2cccnc12)N1CCCOc2ccc(-c3cccc(Cl)c3)nc21 [Compound 884] |
| 1 to 25 | > 200 |  |  | O=C1CCCN(C(=O)Nc2ccncc2F)c2nc(-c3cccc(C(F)(F)F)c3)ccc21 [Compound 821] |
